Each structure is given as a SMILES string.

The subject of experiment [1] is phosphorylated-FAK (p-FAK, Tyr397). The experiment can be described thus: Western blot, KYSE-150 and KYSE-520 cells. It counts as cell-based. As to conditions: KYSE-150 (1 μM Compound 5, 1 μM Ibrutinib) and KYSE-520 (1 μM Compound 5, 0.5 μM Ibrutinib), 24 hours. On the procedure: (§1) The cells were lysed on ice with 1× cell lysis buffer containing 1% protease inhibitor (PMSF) and 1% phosphokinase inhibitor for 30 minutes, centrifuged at 12000 rpm and 4° C. for 15 minutes, and the supernatant protein lysate was collected. The protein concentration was measured by BCA protein concentration detection kit. The cell protein lysates (20 to 50 μg) were separated using 8-12% SDS-PAGE electrophoresis. The separated proteins were transferred to a PVDF membrane. The PVDF membrane was blocked with 5% BSA buffer at room temperature for 30 minutes to 1 hour, and then incubated overnight on a 4° C. shaker with 1× TBST containing primary antibody. The redundant primary antibody was eluted, and the membrane was washed 3 times with 1× TBST, 5 to 10 minutes for each time. The protein band membrane was incubated with horseradish peroxidase-labeled secondary antibody dilution for 1 hour at room temperature, and the membrane was washed 3 times with 1× TBST, 5 to 10 minutes for each time. The signal generation and detection were performed using an ECL chemiluminescence ultrasensitive colorimetric kit and a chemiluminescence imaging system. The primary antibodies used in this experiment included: EGFR, (CST, Cat.4267S); phosphorylated EGFR (p-EGFR (Tyr1068)), (CST, Cat.3777T); FAK, (CST, Cat.3285S); phosphorylated FAK (p-FAK (Tyr397)), (CST, Cat.8556T); AKT, (CST, Cat.4685S); phosphorylated p-AKT (Ser473), (CST, Cat.9271S); ERK, (CST,Cat.4695S); phosphorylated ERK (p-ERK (Thr202/Tyr204)), (CST, Cat.4370T); phosphorylated MEK (p-MEK (Ser217/221)), (CST, Cat.9121S);BTK, (Immunoway, Cat. YM1294); C-Myc, (CST, Cat. 5605); phosphorylated C-Myc, (CST, Cat. 13748); Cyclin B1 (CST, Cat. 12231S), Cylin D1 (CST, Cat.2978S), GAPDH (ABGENT, Cat.AM1020B). The secondary antibodies used in this experiment included goat-anti-rabbit secondary antibody (Senta, Cat. Sc-2004) and goat-anti-mouse secondary antibody (Senta, Cat. Sc-2005).
(§2) (1) The experimental method was as described in the items (1), (2), (5) of Example 2. […] The changes in signaling pathway of related proteins were determined by Western blotting assay.
Background: A western blot detects proteins with antibodies after separation by electrophoresis.

Experiment [2] relates to KYSE-150 cells. The experiment in a line: Colony formation assay. It counts as cell-based, human. Conditions: 1 μM Compound 5, 1 μM Ibrutinib or both, 12 days. The method, then: Growth inhibition was detected by colony formation assay. ESCC cells were inoculated in 6-well plates at about 500 cells/well, and treated with different inhibitors or DMSO, and then replaced with fresh medium containing with different inhibitors or DMSO every 3 to 4 days. The cells were stained with crystal violet (V5265, Sigma, St Louis, Mo., USA) on day 12. After washing twice with PBS, the cells were fixed with 1% paraformaldehyde and incubated for 15 minutes at room temperature. The cells were then washed twice with PBS and stained with 0.5% crystal violet for 15 minutes at room temperature.
as §2

Experiment [3] has as its system Cyclin D1. The experiment can be described thus: Western blot, KYSE-150 and KYSE-520 cells. It counts as cell-based. As to conditions: KYSE-150 (1 μM Compound 5, 1 μM Ibrutinib) and KYSE-520 (1 μM Compound 5, 0.5 μM Ibrutinib), 24 hours. On the procedure:
as §1, §2

Experiment [4] relates to phosphorylated ERK (p-ERK, Thr202/Tyr204). The experiment can be described thus: Western blot, KYSE-150 and KYSE-520 cells. It counts as cell-based. Conditions: KYSE-150 (1 μM Compound 5, 1 μM Ibrutinib) and KYSE-520 (1 μM Compound 5, 0.5 μM Ibrutinib), 24 hours. The method, then:
as §1, §2

The test system of experiment [5] is Cyclin B1. The experiment in a line: Western blot, KYSE-150 and KYSE-520 cells. As to conditions: KYSE-150 (1 μM Compound 5, 1 μM Ibrutinib) and KYSE-520 (1 μM Compound 5, 0.5 μM Ibrutinib), 24 hours. It counts as cell-based. On the procedure: as §1, §2
The test system of experiment [6] is phosphorylated MEK (p-MEK, Ser217/221). The experiment in a line: Western blot, KYSE-150 and KYSE-520 cells. It counts as cell-based. Conditions: KYSE-150 (1 μM Compound 5, 1 μM Ibrutinib) and KYSE-520 (1 μM Compound 5, 0.5 μM Ibrutinib), 24 hours. The method, then: as §1, §2
Experiment [7] deals with phosphorylated EGFR (p-EGFR, Tyr1068). The experiment in a line: Western blot, KYSE-150 and KYSE-520 cells. Conditions: KYSE-150 (1 μM Compound 5, 1 μM Ibrutinib) and KYSE-520 (1 μM Compound 5, 0.5 μM Ibrutinib), 24 hours. It counts as cell-based. The method, then:
as §1, §2

On to `Cc1cc(Nc2ncc(Cl)c(Nc3ccccc3S(=O)(=O)C(C)C)n2)c(OC(C)C)cc1C1=CCN(C2CCOCC2)CC1` [Compound 5, 5-chloro-N^2-(2-isopropoxy-5-methyl-4-(1-(tetrahydro-2H-pyran-4-yl)-1,2,3,6-tetrahydropyridin-4-yl)phenyl)-N^4-(2-(isopropylsulfonyl)phenyl)pyrimidine-2,4-diamine], for which the “protein expression level of phosphorylated-FAK (p-FAK, Tyr397)” value in experiment [1] is reported as “significantly decrease”. For the same compound, the “inhibitory effect on cell clone formation” value in experiment [2] is “stronger inhibitory effects”.

Take `C=CC(=O)N1CCC[C@@H](n2nc(-c3ccc(Oc4ccccc4)cc3)c3c(N)ncnc32)C1` [Ibrutinib]: in experiment [3], the “protein expression level of Cyclin D1” value is listed as “significantly decrease”. In addition, the “protein expression level of phosphorylated ERK (p-ERK, Thr202/Tyr204)” value in experiment [4] is “significantly decrease”. The “protein expression level of Cyclin B1” value in experiment [5] was “significantly decrease”. Moreover, the “protein expression level of phosphorylated MEK (p-MEK, Ser217/221)” value in experiment [6] was “significantly decrease”. For the same compound, in experiment [7], the “protein expression level of phosphorylated EGFR (p-EGFR, Tyr1068)” value is “significantly decrease”.

The record behind these values is US20220117964A1, “COMBINATION OF FAK INHIBITOR AND BTK INHIBITOR FOR TREATING A DISEASE” (ASCENTAGE PHARMA (SUZHU) CO., LTD., priority 2019, published 2022).
